“And” between values parts separate entries of the source, which are not always exact repeats. Identical values can stand only once.
Experiments:
Assay type in all cases: cell-based
cos-7 cells = test: DNA transfection: luciferase expression relative to Lipofectamine 2000; conditions: for luciferase expression (second part of table, values relative to LIPO2000): 300 ng of DNA per well
Procedure, shortened: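 cos-7 cells were transfected with 300 ng/well luciferase DNA complexed with lipid at ratios from 2.5 to 25 w/w. Bright-Glo luminescence was read after 48 hours and converted to ng luciferase by standard curve. Data are percent of the Lipofectamine 2000 control (2.5 w/w).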

[1] = system: renilla and firefly luciferases; test: siRNA delivery: reporter-protein (renilla luciferase) knockdown relative to Lipofectamine 2000, firefly luciferase as viability control; conditions: 50 ng of siRNA per well
Protocol: Reporter-protein knockdown achieved by the top transfecting lipids relative to Lipofectamine™ 2000 (where negative values indicate improved knockdown). The assay accounts for toxicity, monitoring expression of both renilla and firefly luciferases, where the latter serves as viability control. For each lipid, 50 ng of siRNA was added per well at specific lipid/RNA w/w ratios (from top to bottom: 2.5, 5, 10, 15).

[2] = DNA delivery: raw luciferase expression (relative light units) of best-transfecting lipids; conditions: 300 ng of DNA per well
Protocol: Raw values for luciferase expression (relative lights units) of best-transfecting lipids at lipid/DNA (w/w) ratios listed. 300 ng of DNA was added per well.

[3] = 1st column, no head printed (2.5 w/w by the raw values)
[4] = 2nd column, no head printed (5 w/w by the raw values)
[5] = 3rd column, no head printed (10 w/w by the raw values)
[6] = 4th column, no head printed (15 w/w by the raw values)

Structure (SMILES) | luciferase expression (second part of table, values relative to LIPO2000) (cos-7 cells; lipid/DNA 2.5 w/w) | luciferase expression (second part of table, values relative to LIPO2000) (cos-7 cells; lipid/DNA 5 w/w) | luciferase expression (second part of table, values relative to LIPO2000) (cos-7 cells; lipid/DNA 10 w/w) | luciferase expression (second part of table, values relative to LIPO2000) (cos-7 cells; lipid/DNA 15 w/w) | luciferase expression (second part of table, values relative to LIPO2000) (cos-7 cells; lipid/DNA 20 w/w) | luciferase expression (second part of table, values relative to LIPO2000) (cos-7 cells; lipid/DNA 25 w/w) | Reporter-protein knockdown relative to Lipofectamine 2000 (negative values indicate improved knockdown) ([1]; lipid/RNA 2.5 w/w) | Reporter-protein knockdown relative to Lipofectamine 2000 (negative values indicate improved knockdown) ([1]; lipid/RNA 5 w/w) | Reporter-protein knockdown relative to Lipofectamine 2000 (negative values indicate improved knockdown) ([1]; lipid/RNA 10 w/w) | Reporter-protein knockdown relative to Lipofectamine 2000 (negative values indicate improved knockdown) ([1]; lipid/RNA 15 w/w) | Raw values for luciferase expression ([2]; lipid/DNA 2.5 w/w) | Raw values for luciferase expression ([2]; lipid/DNA 5 w/w) | Raw values for luciferase expression ([2]; lipid/DNA 10 w/w) | Raw values for luciferase expression ([2]; lipid/DNA 15 w/w) | luciferase expression, second set of columns (replicate set of data) (cos-7 cells; [3]) | luciferase expression, second set of columns (replicate set of data) (cos-7 cells; [4]) | luciferase expression, second set of columns (replicate set of data) (cos-7 cells; [5]) | luciferase expression, second set of columns (replicate set of data) (cos-7 cells; [6])
CCCCCCCCCCCCNC(=O)CCN(C)CCN(CCC(=O)NCCCCCCCCCCCC)CCC(=O)NCCCCCCCCCCCC [ND95] | 11.3 | 30.9 | 37.6 | 53.4 | 37.8 | 54.0 | 19.8058 | 8.319 | −5.205 | −7.163 | 2875811 relative lights units | 4619654 relative lights units | 7977064 relative lights units | 10279185 relative lights units |  |  |  | 
CCCCCCCCCCCCNC(=O)CCN(CCC(=O)NCCCCCCCCCCCC)CCN(CCC(=O)NCCCCCCCCCCCC)CCN(CCC(=O)NCCCCCCCCCCCC)CCN(CCC(=O)NCCCCCCCCCCCC)CCC(=O)NCCCCCCCCCCCC [ND98] | 22.2 | 5.3 | 0.5 | 0.4 | 0.4 | 0.3 | −4.005 | −4.482 | −4.634 | −13.9514 | 5649897 relative lights units and 6947385 relative lights units |  | 1824773 relative lights units | 643862 relative lights units | 78.4 | 65.8 | 26.0 | 9.2
CCCCCCCCCCCCNC(=O)CCN(CCC(=O)NCCCCCCCCCCCC)CCN(CCC(=O)NCCCCCCCCCCCC)CCC(=O)NCCCCCCCCCCCC [ND99] | 16.8 | 36.5 | 78.6 | 91.7 |  |  | −10.1961 | −9.86 | −18.2728 | −20.0273 | 10252260 relative lights units and 11757295 relative lights units | 9886021 relative lights units and 7656193 relative lights units |  |  | 132.7 | 97.5 | 6.8 | 2.2
CCCCCCCCCCCCCCNC(=O)CCN(C)CCCN(CCC(=O)NCCCCCCCCCCCCCC)CCC(=O)NCCCCCCCCCCCCCC [NF96] | 221.5 | 44.3 | 0.2 | 0.1 |  |  | −6.262 | −2.035 | 63.2 | 90.8142 |  |  | 2048655 relative lights units | 167043 relative lights units | 79.4 | 40.8 | 29.2 | 2.4
CCCCCCCCCCCCCCCNC(=O)CCN(CC)CCCN(CC)CCC(=O)NCCCCCCCCCCCCCCC [NG64] |  |  |  |  |  |  | −11.7697 | −34.6712 | 3.073 | 1.439 | 2585784 relative lights units | 1972838 relative lights units |  |  |  |  |  | 

From US9006487B2, “Amine-containing lipids and uses thereof” (Massachusetts Institute of Technology, priority 2005, dated 2015)
